Experimental data published in EP3882250B1, “TETRAHYDROPYRANYL AMINO-PYRROLOPYRIMIDINONE FOR USE IN TREATING BTK-MEDIATED DISORDERS” (ArQule, Inc., priority 2015, dated 2017).

Assays:
[1] = system: Rec-1 cells; assay: Anti-proliferation Assay (MTS), Rec-1 cells; format: cell-based; conditions: Homo sapiens, Rec1, treated for 72 hours, MTS cell survival
Experimental: (§1) Cell survival is determined by a MTS assay. Briefly, cells (i.e., TMD-8 cells or Rec-1 cells) are plated in a 96-well plate, cultured in complete growth medium, and then treated with various drugs and drug combinations. MTS/PMS is added and incubated, followed by assessment of cell viability using the microplate reader. Data is normalized to untreated controls and analyzed with Microsoft Excel.
(§2) Cell survival was determined by the MTS assay. Briefly, cells (i.e., TMD-8 cells or Rec-1 cells) were plated in a 96-well plate at 2,000-10,000 cells per well, cultured for 24 hours in complete growth medium, and then treated with various drugs and drug combinations for 72 hours. MTS/PMS was added and incubated for 4 hour, followed by assessment of cell viability using the microplate reader (absorbance at 490 nm). Data were normalized to untreated controls and analyzed with Microsoft Excel.

[2] = system: TMD-8 cells; assay: Anti-proliferation Assay (MTS), TMD-8 cells; format: cell-based; conditions: Homo sapiens, TMD8, treated for 72 hours, MTS cell survival
Experimental: as §1, §2

`O=C(c1ccc(Oc2ccccc2)cc1Cl)c1c[nH]c2ncnc(N[C@@H]3CC[C@@H](CO)OC3)c12` [Compound (I), (2-chloro-4-phenoxyphenyl)(4-(((3R,6S)-6-(hydroxymethyl)tetrahydro-2H-pyran-3-yl)amino)-7H-pyrrolo[2,3-d]pyrimidin-5-yl)methanone] showed an IC50 [1] of 180 ± 70 nM and an IC50 [2] of 130 ± 60 nM.
